EP0274444A2, “Solution inbuprofen complexes, compositions and processes for preparing the same” (priority 1987, dated 1988)

Experiment: pH of the resulting solutions (pH meter with combination electrode)
Assay type: physicochemical
Details: Mole Ratio Cyclodextrin:Ibuprofen 0:1 (ibuprofen alone, saturated solution)
Protocol: The pH of each solution was measured using an Orion Model 701 pH meter with a combination electrode.

## CC(C)Cc1ccc(C(C)C(=O)O)cc1 (stereo not shown) [Ibuprofen, ibuprofen]
  pH: 4.56
